Measurements from patent US12065442B2, “Tropomyosin receptor kinase (TRK) degradation compounds and methods of use” (Cullgen (Shanghai), Inc., priority 2018, dated 2024).
Entries after “also recorded” stand apart in the source; their conditions may differ.

Columns and labels:
[1] = tested on: KM12 cells; assay: Cell viability assay (CellTiter-Glo) in KM12 cells; format: cell-based; conditions: Homo sapiens, 72 h; Table 3; KM12 cell viability, CellTiter-Glo, 3 days; read-out: IC50
[2] = Body weight of xenograft-bearing mice (toxicity); format: in vivo, Athymic nude mice; conditions: 10-20 mg/kg qd or bid via oral gavage (FIG. 15B)
Experimental: (§1) Athymic nude mice bearing KM12 subcutaneous xenograft tumors at the right flank were intraperitoneally treated with vehicle or 25 mg/kg CPD-060 once per day (qd), twice per day (bid), or once every two days (q2d). Tumor volumes were assessed every two days and expressed as length×width×width/2. Body weights of experimental mice were also measured to assess the toxicity of compounds.
(§2) Athymic nude mice bearing KM12 subcutaneous xenograft tumors at the right flank were treated with vehicle, 10-20 mg/kg TR-181 or TR-198 once per day (qd), or twice per day (bid) via oral gavage. Tumor volumes were assessed every two days and expressed as length×width×width/2. Body weights of experimental mice were also measured to assess the toxicity of compounds.
(§3) All animal experiments were performed under protocols approved by the Institutional Animal Care and Use Committee (IACUC) of Cullgen. Athymic nude mice (male, 5-weeks old) received 5 million KM12 cells subcutaneously inoculated at the right flank site. Ten days following inoculation, tumors were approximately 500 mm3 in size. Tumor-bearing mice were treated intraperitoneally with vehicle or bivalent compounds at indicated doses. Tumor sizes and body weight of mice were measured every 2 days. In addition, immunoblotting assays were employed to assess the levels of TRKA fusion proteins in xenograft tumors around 500 mm^3 in size following drug administration. At indicated hours after drug administration, selected mice were sacrificed, tumors were resected. Small chunks of tumors were homogenized for immunoblotting of TPM3-TPKA and other proteins as indicated.

[3] = tested on: monoiodoacetate-induced osteoarthritis; assay: Monoiodoacetate-induced osteoarthritis pain model in guinea pigs; format: in vivo; conditions: 20 mg/kg i.p., single dose, 6 hours following treatment (FIG. 16B)
[4] = target: TPM3-TRKA fusion protein (Homo sapiens, UniProt P04629+P06753+Q96SW2); assay: Immunoblotting of TPM3-TRKA in KM12 subcutaneous xenograft tumors; format: in vivo, Athymic nude mice; design: The resulted chimeric proteins always retain the kinase domain of TRK proteins; TPM3 (N-terminal fusion partner, natural gene fusion); from tissue; host or cells: KM12 subcutaneous xenograft tumors in athymic nude mice; conditions: intraperitoneal or oral administration, eight hours after administration (FIG. 10)
TPM3-TRKA fusion protein, sequence (P06753+P04629 fused): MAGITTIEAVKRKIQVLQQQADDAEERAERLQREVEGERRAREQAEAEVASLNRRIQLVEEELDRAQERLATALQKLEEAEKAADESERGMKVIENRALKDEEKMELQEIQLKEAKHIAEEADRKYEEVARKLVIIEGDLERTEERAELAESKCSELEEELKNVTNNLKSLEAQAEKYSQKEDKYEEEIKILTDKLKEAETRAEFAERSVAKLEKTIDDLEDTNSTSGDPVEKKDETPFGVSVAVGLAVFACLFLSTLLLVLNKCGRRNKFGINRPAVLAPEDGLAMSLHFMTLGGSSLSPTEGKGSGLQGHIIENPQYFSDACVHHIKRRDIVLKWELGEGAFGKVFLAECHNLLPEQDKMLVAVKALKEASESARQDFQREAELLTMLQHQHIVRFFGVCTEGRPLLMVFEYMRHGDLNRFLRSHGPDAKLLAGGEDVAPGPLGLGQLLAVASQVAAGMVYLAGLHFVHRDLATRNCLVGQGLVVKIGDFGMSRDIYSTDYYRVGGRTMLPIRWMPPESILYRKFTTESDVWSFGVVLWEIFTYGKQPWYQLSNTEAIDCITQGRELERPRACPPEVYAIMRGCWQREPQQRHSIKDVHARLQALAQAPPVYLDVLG
TPM3-TRKA fusion protein, sequence (Q96SW2 whole entry, the tested form may be a part): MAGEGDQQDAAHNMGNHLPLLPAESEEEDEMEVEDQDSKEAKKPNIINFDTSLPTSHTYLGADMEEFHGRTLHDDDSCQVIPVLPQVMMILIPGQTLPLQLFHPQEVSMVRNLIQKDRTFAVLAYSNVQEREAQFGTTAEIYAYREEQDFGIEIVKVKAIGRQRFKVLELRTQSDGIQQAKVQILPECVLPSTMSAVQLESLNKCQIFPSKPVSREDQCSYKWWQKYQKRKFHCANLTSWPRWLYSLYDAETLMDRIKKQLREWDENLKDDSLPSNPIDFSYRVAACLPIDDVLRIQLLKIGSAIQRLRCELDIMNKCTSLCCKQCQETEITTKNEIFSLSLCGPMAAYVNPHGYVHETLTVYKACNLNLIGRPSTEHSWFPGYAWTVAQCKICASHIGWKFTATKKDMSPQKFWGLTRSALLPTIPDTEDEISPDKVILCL
TPM3-TRKA fusion protein, sequence (Q16531 whole entry partner, the tested form may be a part): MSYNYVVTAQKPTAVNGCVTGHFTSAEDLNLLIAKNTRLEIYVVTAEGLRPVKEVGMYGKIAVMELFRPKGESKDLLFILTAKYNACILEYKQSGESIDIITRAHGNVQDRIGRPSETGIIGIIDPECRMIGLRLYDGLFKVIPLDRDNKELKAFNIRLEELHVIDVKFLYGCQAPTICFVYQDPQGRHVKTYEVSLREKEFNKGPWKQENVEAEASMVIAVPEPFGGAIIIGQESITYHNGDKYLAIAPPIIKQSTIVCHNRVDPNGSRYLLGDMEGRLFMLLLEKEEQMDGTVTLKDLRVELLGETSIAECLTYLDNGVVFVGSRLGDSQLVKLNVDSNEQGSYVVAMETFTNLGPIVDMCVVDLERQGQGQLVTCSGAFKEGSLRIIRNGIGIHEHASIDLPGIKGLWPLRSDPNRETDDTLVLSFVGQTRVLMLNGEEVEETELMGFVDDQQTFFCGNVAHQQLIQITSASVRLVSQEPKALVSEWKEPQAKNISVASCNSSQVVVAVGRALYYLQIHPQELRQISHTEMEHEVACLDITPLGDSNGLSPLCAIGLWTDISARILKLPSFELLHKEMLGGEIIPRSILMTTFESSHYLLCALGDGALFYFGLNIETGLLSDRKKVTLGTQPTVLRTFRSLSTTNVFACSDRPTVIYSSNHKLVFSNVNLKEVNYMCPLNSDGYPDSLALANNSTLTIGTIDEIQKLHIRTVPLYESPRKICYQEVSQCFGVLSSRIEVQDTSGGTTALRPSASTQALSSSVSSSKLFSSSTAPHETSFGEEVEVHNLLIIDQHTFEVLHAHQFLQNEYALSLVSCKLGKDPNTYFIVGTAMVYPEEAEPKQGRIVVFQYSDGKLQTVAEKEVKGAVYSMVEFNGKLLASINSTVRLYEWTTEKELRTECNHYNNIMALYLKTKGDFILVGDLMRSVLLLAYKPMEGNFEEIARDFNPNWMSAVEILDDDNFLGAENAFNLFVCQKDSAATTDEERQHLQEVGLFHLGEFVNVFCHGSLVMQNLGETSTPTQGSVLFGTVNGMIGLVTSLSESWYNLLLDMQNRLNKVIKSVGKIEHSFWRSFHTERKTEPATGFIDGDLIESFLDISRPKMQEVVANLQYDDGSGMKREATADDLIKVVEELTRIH
Experimental: In addition to cultured cells, athymic nude mice bearing KM12 subcutaneous xenograft tumors at the right flank were intraperitoneally treated with 10, 20, or 50 mg/kg CPD-053, CPD-027, or CPD-060. Four hours after drug administration, animals were sacrificed for immunoblotting of TPM3-TPKA in homogenized xenograft tumor masses. The label “a” or “b” represents two different samples of the same xenograft tumor.
Athymic nude mice bearing KM12 subcutaneous xenograft tumors at the right flank were intraperitoneally treated with 10, 20, or 50 mg/kg CPD-053, CPD-027, or CPD-060, as indicated in FIG. 3. Four hours after drug administration, animals were sacrificed for immunoblotting of TPM3-TPKA in homogenized xenograft tumor chunks. The label “a” or “b” represents two different chunks of the same xenograft tumor.
Athymic nude mice bearing KM12 subcutaneous xenograft tumors at the right flank were intraperitoneally or orally treated with bivalent compounds at indicated dose. Eight hours after drug administration, animals were sacrificed for immunoblotting of TPM3-TPKA in homogenized xenograft tumor samples.
Cultured cells were washed with cold PBS once and lysed in cold RIPA buffer supplemented with protease inhibitors and phosphatase inhibitors (Beyotime Biotechnology). The solutions were then incubated at 4° C. for 30 minutes with gentle agitation to fully lyse cells. For tumor tissues, tumors were cut into small pieces, milled with cold RIPA buffer using a mechanical homogenizer and lysed for 1 hour at 4° C. Cell lysates were centrifuged at 13,000 rpm for 10 minutes at 4° C. and pellets were discarded. Total protein concentrations in the lysates were determined by BCA assays (Beyotime Biotechnology). Cell lysates were mixed with Laemmli loading buffer to 1× and heated at 99° C. for 5 min. Proteins were resolved on SDS-PAGE and visualized by chemiluminescence. Images were taken by a ChemiDoc MP Imaging system (Bio-Rad). Protein bands were quantitated using the software provided by Bio-Rad.
as §3

[5] = tested on: KM12 subcutaneous xenograft tumors; assay: KM12 subcutaneous xenograft tumor growth study; format: in vivo, Athymic nude mice; conditions: 10-20 mg/kg qd or bid via oral gavage (FIG. 15A)
Experimental: as §1, §2, §3

[6] = tested on: monoiodoacetate-induced osteoarthritis; assay: Monoiodoacetate-induced osteoarthritis pain model in rats; format: in vivo, Sprague Dawley rats; conditions: 20 mg/kg i.p., single dose, 6 hours following treatment (FIG. 16A)

O=C1CCC(N2C(=O)c3ccc(NCCN4CCN(c5cccc(-c6cnc7ccc(N8CCC[C@@H]8c8cccc(F)c8)nn67)n5)CC4)cc3C2=O)C(=O)N1 (stereo partly drawn) [TR-181, 2-(2,6-dioxopiperidin-3-yl)-5-((2-(4-(6-(6-((R)-2-(3-fluorophenyl)pyrrolidin-1-yl)imidazo[1,2-b]pyridazin-3-yl)pyridin-2-yl)piperazin-1-yl)ethyl)amino)isoindoline-1,3-dione]
IC50 [1]: 3.4 nM
body weight [2]: without inducing substantial weight losses
analgesic activity (percentage of weight born on the injured limb) [3]: significant analgesic activity
TPM3-TRKA degradation in KM12 subcutaneous tumors [4]: exhibited the activities to induce TPM3-TRKA degradation
growth of KM12 subcutaneous xenograft tumors [5]: significant in vivo anti-tumor activity; also recorded: significantly repressed the growth
analgesic activity (percentage of weight born on the injured limb) [6]: significant analgesic activity
